Assay results reported in patent publication US11191801B2, “Pharmaceutical composition for preventing or treating diabetic complications and angioedema, containing natural mixture extract as active ingredient” (KOREA INSTITUTE OF ORIENTAL MEDICINE, priority 2014, dated 2021).
Several values for one entry are separate records, joined by “and”; a condition that tells them apart may be missing. Identical values can stand only once.

Experiments:
MNU-induced C57BL/6 mice = experiment: MNU-induced macular degeneration model, extracts versus paeoniflorin: thickness of outer nuclear layers; assay type: in vivo; details: for Thickness of outer nuclear layer (AU): orally
Description: 6-week-old male C57BL/6 mice were used after purification thereof for one week. In order to induce damage and denaturation of photoreceptor cells, among morphological changes of retinal tissues which appeared in macular degeneration, 1% (0.05% acetic acid) N-methyl-N-nitrosourea (MNU, Sigma, USA) was intraperitoneally injected to the 7-week-old male C57BL/6 mice at a concentration of 60 mg/kg. The same amount of 0.05% acetic acid was intraperitoneally administered to the normal group. As the samples, CMO4 (100 mg/kg), which is the extract of cinnamon twig and moutan root bark (1:8), and CPA4 (100 mg/kg), which is the extract of cinnamon twig and peony root (1:8), paeoniflorin −2.7 (2.7 mg/kg), and paeoniflorin −12.3 (12.3 mg/kg) were suspended and prepared in 0.5% CMC and administered orally once before the MNU administration day. After administration of MNU, these resultants were orally administered once a day for seven days, respectively. In the normal and MNU-induced groups, the same amount of 0.5% CMC was orally administered.
Change in a thickness of outer nuclear layers caused by damage to photoreceptor cells in retinal nerve tissues was confirmed.
Specifically, experimental groups in which the samples were treated in the same manner as Experimental Example 8-1 were autopsied after the administration, and eyeballs were enucleated. Thereafter, the enucleated eyeballs were fixed in 10% neutralized formalin for one day, and embedded with paraffin to prepare slide sections. The slide sections were stained with H&E and observed under an optical microscope.

[1] = system: human retinal pigment epithelial cell line (ARPE-19); details: Molecular Vision 2011; 17: 3512-3522; cited from earlier work
db/db mice [2] = experiment: Therapeutic model with metformin co-administration: damage to blood-retinal barrier; assay type: in vivo; details: metformin 350 mg/kg/day alone
Description: In addition, 50 mg/mL of fluorescein-dextran (2×10^6 molecular weight) which was prepared by dissolving in sterilized PBS (1 mL) was injected into the left ventricle. After 10 minutes, the eyeballs were enucleated, and the left eyeball was placed in an eyecup. The separated retina was placed on a slide, and then mounted using aqueous mounting medium. After this was sufficiently dried, a fluorescence microscope was used to observe the same. The results were confirmed at 12 weeks, 18 weeks, and 24 weeks of inducing diabetes, respectively.

db/db mice [3] = experiment: Therapeutic model with metformin co-administration: formation of acellular capillaries; assay type: in vivo; details: metformin 350 mg/kg/day alone
Description: Specifically, eyeballs were enucleated from mice in the same manner as Experimental Example 6-2, and retinas were enucleated from the eyeballs and washed with running water. Thereafter, they were placed in 3% trypsin and cultured at 37° C. for one hour. The digested retinas were transferred to PBS, and the internal membrane (membrane of organelle present in cells) was removed. The vascular frame was separated from the retinal background using a glass rod, placed on a slide, and dried. The dried vascular frame was then stained with PAS and hematoxylin, and variations in cell walls and nuclei were confirmed.

claudin-5 and occludin = experiment: Therapeutic model with metformin co-administration: damage to tight-junction proteins; assay type: in vivo, mice; details: metformin 350 mg/kg/day alone
Description: In addition, the resultant was dehydrated and substituted three times with xylene, thereby embedding the same with paraffin. Blocks of the embedded tissue were prepared as serial sections in a thickness of 4 μm, and placed on slides for use. In order to remove an endogenous peroxidase activity, a slide which underwent deparaffinization and function processes was allowed to react with 3% hydrogen peroxide solution for 10 minutes, and then washed three times with PBS containing 0.05% tween 20. […] Thereafter, the diluted primary antibodies were treated for one hour or overnight. After washing with PBS for one hour, a labeled streptoavidin biotin (LSAB) kit (Dako, USA) was applied to the resultants, developed with DAB, and then observed using an optical microscope. […] Thereafter, the resultants were stained with DAPI and observed using a fluorescence microscope.

[4] = system: advanced glycation end-products (AGEs); experiment: Inhibition of producing advanced glycation end-products (AGEs) in vitro (BSA with fructose/glucose, fluorescence); assay type: biochemical; details: BSA 10 mg/mL, 0.2 M fructose and 0.2 M glucose, 37° C., seven days
Description: Specifically, 10 mg/mL of bovine serum albumin (BSA, Sigma, USA) dissolved in 50 mM phosphate buffer (pH 7.4) was used as a protein source, and the solution mixed with 0.2 M fructose and 0.2 M glucose was used as a sugar source. The extracts of Examples and aminoguanidine (positive control group) were dissolved in 0.2% dimethylsulfoxide (DMSO), followed by dissolving again in 15% tween 80. The thus-prepared protein source, sugar source, and extracts were mixed, prepared at 1 mL in total, cultured at 37° C. for seven days, and allowed to undergo glycation. Herein, 0.02% sodium azide, an antibacterial agent, was added to prevent bacterial production. After cultivation, the fluorescence was measured at an absorption wavelength of 350 nm and an emission wavelength of 450 nm using a spectrofluorometric detector (Bio-TEK, USA).

[5] = target: T1, cross-link between AGE-BSA and collagen (Bos taurus, UniProt P02769); experiment: Fragmentizing cross-link of advanced glycation end-products (AGE-BSA/collagen ELISA); assay type: biochemical; details: AGE-BSA cross-linked to collagen, 37° C., four hours
T1 construct: purchased Transgenic Inc. Kobe, Japan (AGE-BSA); Greiner Bio-One, Germany (collagen-coated plate)
T1 sequence (P02769 25-607): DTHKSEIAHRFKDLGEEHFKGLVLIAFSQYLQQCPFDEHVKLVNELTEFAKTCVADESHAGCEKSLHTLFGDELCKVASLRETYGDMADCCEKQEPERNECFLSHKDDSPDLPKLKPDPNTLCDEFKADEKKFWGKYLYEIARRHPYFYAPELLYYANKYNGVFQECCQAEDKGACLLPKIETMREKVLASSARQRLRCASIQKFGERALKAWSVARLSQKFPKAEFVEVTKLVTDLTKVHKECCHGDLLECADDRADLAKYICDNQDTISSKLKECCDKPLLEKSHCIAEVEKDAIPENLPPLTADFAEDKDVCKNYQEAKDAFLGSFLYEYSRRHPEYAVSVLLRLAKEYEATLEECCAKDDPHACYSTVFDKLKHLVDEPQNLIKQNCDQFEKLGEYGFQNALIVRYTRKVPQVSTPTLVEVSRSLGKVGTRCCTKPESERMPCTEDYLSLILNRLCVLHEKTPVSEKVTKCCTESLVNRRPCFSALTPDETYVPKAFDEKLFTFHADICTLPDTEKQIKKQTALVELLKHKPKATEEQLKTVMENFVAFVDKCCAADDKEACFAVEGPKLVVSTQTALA
Description: Specifically, 1.0 μg of AGE-BSA (Transgenic Inc. Kobe, Japan) was dispensed into a collagen-coated 96-well microtiter plate (Greiner Bio-One, Germany) and cultured at 37° C. for four hours, and then the AGE-BSA and collagen were allowed to cross-link. After washing the resultant three times with PBST (0.05%) to remove AGE-BSA not linked, a mixed extract and ALT-711 were added, and cultured at 37° C. for four hours. Thereafter, the resultant was washed with PBST (0.05%), and in order to detect the AGE-BSA remaining due to the cross-link to collagen, mouse monoclonal anti-AGE-BSA antibodies (6D12, Transgenic Inc. Kobe, Japan) were diluted at 1:250 and dispensed, followed by cultivation at 37° C. for one hour. After one hour, the resultant was washed with PBST (0.05%) and reacted with HRP-linked goat anti-mouse IgG antibodies (Santa Cruz, USA) to develop TMB (3.3′,5,5′-tetramethylbenzidine) as a substrate. Thereafter, absorbance was measured at 450 nm. The cross-link fragmentation effect (%) of AGE-BSA was calculated as shown in the following Equation 2.

Structure (SMILES): C[C@@]12C[C@@]3(O)O[C@@H](O1)[C@]1(COC(=O)c4ccccc4)[C@H]3C[C@@]12O[C@@H]1O[C@H](CO)[C@@H](O)[C@H](O)[C@H]1O [paeoniflorin]
- Thickness of outer nuclear layer (AU) (MNU-induced C57BL/6 mice; Table 4: CMO4 100 mg/kg, paeoniflorin 2.7 mg/kg, NOR 1.99, MNU 1.23, listed as PF-2.7): 1.23±0.21 AU
- Thickness of outer nuclear layer (AU) (MNU-induced C57BL/6 mice; Table 5: CPA4 100 mg/kg, paeoniflorin 12.4 mg/kg, NOR 1.99, MNU 0.92, listed as PF-12.4): 1.11±0.19 AU
- Thickness of outer nuclear layer (%) (MNU-induced C57BL/6 mice; Table 5: CPA4 100 mg/kg, paeoniflorin 12.4 mg/kg, NOR = 100, MNU = 0.57, listed as PF-12.4): 17.5% and 17.46 ± 17.39%
- apoptosis caused by H2O2 [1]: inhibitory effect on apoptosis

Structure (SMILES): CN(C)C(=N)N=C(N)N [metformin]
- outflow of fluorescent substances (db/db mice [2]; at 18 weeks): significantly reduced
- outflow of fluorescent substances (db/db mice [2]; at 24 weeks): not prevented
- formation of acellular capillaries (db/db mice [3]): could not prevent the proliferation
- amount of occludin (western blot) (claudin-5 and occludin): no significant increase
- claudin-5 loss (staining) (claudin-5 and occludin): snapped in various regions of blood vessels

Structure (SMILES): N=C(N)NN [AG, aminoguanidine]
- IC50 (μg/mL), inhibition of production of advanced glycation end-products [4]: 82.50 ± 1.10 µg/mL

Structure (SMILES): Cc1sc[n+](CC(=O)c2ccccc2)c1C.[Cl-] [ALT-711]
- IC50 (μg/mL), cross-link fragmentation effect of AGE-BSA [5]: 17,060 ± 2.35 μg/mL
